Measured values: US6313090A, “Methods for treating parasitic infection using thiopeptides” (The United States of America as represented by the …, priority 2000, dated 2001)
pIC50: −log10 of the molar value.

Legend:
[1] = system: P. falciparum (strain 3D7); assay: Assay of growth inhibition, [3H]hypoxanthine incorporation; type: cell-based
Protocol: Assay of Growth inhibition. Thiostrepton (1525 u/mg; Calbiochem) and anisomycin (Sigma) were dissolved at 100 mM in DMSO (Pierce). P. falciparum (strain 3D7) (44) was maintained in culture with human erythrocytes (5% hematocrit) in RPMI-1640 (Life Technologies) supplemented with HEPES and sodium bicarbonate and human sera (10%) under standard conditions (18,19). The growth inhibition assay was conducted as described (20). Briefly, the parasitemia was adjusted to 0.1% parasitemia, 2.5% hematocrit and 200 μl aliquots placed in wells of a microtitre dish. Serial dilutions of drugs were made in RPMI. Thiostrepton was diluted to 10 mM in DMSO before the serial dilutions in RPMI. Aliquots (20 μl) were added in triplicate to the cultures in the microtitre plate, mixing well. At the highest concentrations (final 0.2mM), thiostrepton precipitates. After incubation for 48 hours under standard conditions, [2,8-^3 H]-hypoxanthine Moravek Biochemicals, 12.5 Ci/mmol) in RPMI (20 μl, 0.05 mCi/ml) was added to each well. After incubation for a further 24 hours, the cultures were lysed and incorporated radioactivity was measured with an automated counter.
Assay of inhibition. The effect of thiostrepton on growth and protein synthesis of P. falciparum was compared to anisomycin, since the effect of both of these drugs is on protein synthesis. To assay the effect of thiostrepton and anisomycin on the growth of P. faciparum, inhibition of the uptake and incorporation of [^3 H]hypoxanthine was quantitated at serial dilutions of the drugs on an in vitro culture of P. falciparum. […] Inhibition of the incorporation of [^3 H]leucine was also tested at the same dilutions of the drugs. For anisomycin, total protein synthesis was inhibited 50% at the IC50 (0.511 μM) for inhibition of growth, with the concentration-response almost superimposable on that of protein synthesis. […] This would occur if organelle protein synthesis was the target of inhibition (29,30).

C. parvum = assay: In vivo testing, SCID mice with acute C. parvum infection; design: species or system Cryptospordium parvum
Protocol: SCID mice (Taconic Farms, Germantown, N.Y.), preconditioned with monoclonal antibodies to interferon as described (41), were given an acute infection of C. parvum (10^7 oocysts given orally). A total of five mice in two groups were used. One group received 500 mg/kg/day (in two doses of 250 mg/kg) of thiostrepton six days post-infection and the other group received a placebo. Treatment lasted ten days and oocyst shedding was measured by counting the number of oocysts in 30 fields under high power microscopy of acid-fast stained fecal smears and calculating the mean for each group as described (41). […] Mucosal scores describe the extent of mucosal infection detected in formalin-fixedsections of tissue samples from various gut sites (pyloric region of stomach, liver, gallbladder, mid-small intestine, terminal ileum, cecum and colon) taken during necropsy. Scoring was as follows: 0 (no infection) to 5 (maximal infection) and was expressed as the combined score of the number of gut sites examined.

## C=C(NC(=O)C(=C)NC(=O)c1csc(C2=N[C@@H]3c4csc(n4)[C@H]4NC(=O)c5csc(n5)[C@H]([C@](C)(O)[C@@H](C)O)NC(=O)[C@H]5CSC(=N5)/C(=C/C)NC(=O)[C@H]([C@@H](C)O)NC(=O)c5csc(n5)[C@]3(CC2)NC(=O)[C@H](C)NC(=O)C(=C)NC(=O)[C@H](C)NC(=O)[C@H]([C@@H](C)CC)N[C@@H]2C=Cc3c([C@H](C)O)cc(nc3[C@H]2O)C(=O)O[C@@H]4C)n1)C(N)=O [Thiostrepton, thiostrepton]
[1]; Plasmodium falciparum, 3D7, in vitro culture, [3H]hypoxanthine uptake and incorporation
  pIC50: 5.74
[1]; concentration used, near the IC99 value, this study
  IC99 (near): ~8 µM
C. parvum; 2 × 250 mg/kg, combined score of gut sites, 0 (no infection) to 5 (maximal infection) per site
  Mucosal score: 9.8
C. parvum; SCID mice, 500 mg/kg/day (two doses of 250 mg/kg), ten days, FIG. 1
  oocyst shedding compared to placebo: significantly reduced oocyst shedding
C. parvum; last day of 10 day treatment, 2 × 250 mg/kg
  Oocyst shedding, % Inhib: 78.9%
C. parvum; last day of 10 day treatment, 2 × 250 mg/kg, oocysts in 30 fields of fecal smears
  Oocyst shedding, Mean: 11.2
